Data reported in article PMC8152971, “Valeriana rigida Ruiz & Pav. Root Extract: A New Source of Caffeoylquinic Acids with Antioxidant and Aldose Reductase Inhibitory Activities” (Foods, 2021).
Where “and” joins values, the source holds several entries; their conditions need not be identical. Identical values can stand only once. Like-named read-outs stand apart in the source and are kept apart here. Marks after values point to notes of the source that are not given here.

Columns and labels:
[1] = molecular target: T1, rat lens AR homogenate (aldose reductase) (Rattus norvegicus, UniProt P07943); experiment: AR inhibition assay; format: biochemical, Sprague–Dawley rats
T1 construct: the lenses were removed from the eyes, ground in a mortar; from tissue; host or cells: lens of Sprague–Dawley rats
Protocol: The eyes of 10-week Sprague–Dawley rats (250–280 g) were removed and frozen at −70 °C before use. Thereafter, the lenses were removed from the eyes, ground in a mortar (precooled at −70 °C), and extracted using 0.1 M PBS of pH 6.2 (around 0.5 mL of buffer per two frozen rat lenses).
The AR inhibitory activities of the extract and the separated compounds were determined as described previously. […] Next, the reaction was initiated by adding 20 µL of the substrate (DL-glyceraldehyde dimmer, 25 mM in 0.1 M PBS of pH 7.0), and the values were further measured for 6 min at 340 nm (OD340) using an Epoch microplate spectrophotometer (BioTek Instruments, Winooski, VT, USA). […] The DMSO used for sample preparation was less than 0.4% (v/v) in the reaction system.

[2] = Partition coefficient (K upper/lower) in biphasic CCC solvent systems; format: physicochemical
Protocol: The solvent system was screened via HPLC and evaluated according to the partition coefficient (K value) of the target compounds on the principle introduced by Ito [32]. Briefly, four solvent systems comprising EtOAc, n-BuOH, […] solution to 29 mM, and then the corresponding K values of the target compounds under acidic (Kacid) or basic (Kbase) conditions were determined, as previously described: each acidified or basified solvent system was partitioned to upper layer and lower layer. Thereafter, the extract (about 1–2 mg) was prepared in a 1.5 mL tube and dissolved by adding equal volumes (each 500 µL) of the upper layer and lower layers, which were mixed by a vortex mixer and centrifuged for about 20 s using a C1301 Mini Centrifuge (Labnet International, South Korea). Next, the upper and lower phase sample solutions were respectively pipetted (each 200 µL) into a new 1.5 mL-tube and evaporated by nitrogen gas. Each sample residue was redissolved using 200 µL of MeOH and subjected to HPLC analysis with an injection volume of 20 µL. The K value was calculated as K = Aupper/Alower, where Aupper and Alower are the HPLC peak areas of the target component in the upper and lower phases, respectively.

[3] = ABTS radical scavenging assay; settings: Trolox equivalent antioxidant capacity, mean ± SD, n ≥ 3
Protocol: The experiment was conducted as previously described. In brief, 3.5 mM of potassium persulfate aqueous solution was used to prepare 0.2 mM of ABTS diammonium salt. The solution was diluted 10-fold using distilled water and allowed to produce ABTS radicals (ABTS^+) by keeping the solution in the dark for 14 h at room temperature. […] Equation (1) was used to calculate the ABTS^+ scavenging activity (%), where Acontrol is the absorbance of ABTS^+ solution free of samples, Asample is the absorbance of ABTS^+ solution incubated with a sample, Ablank1 is the absorbance of the test sample free of ABTS^+ solution, and Ablank2 is the absorbance of the diluted potassium persulfate solution.

[4] = DPPH radical scavenging assay; settings: Trolox equivalent antioxidant capacity, mean ± SD, n ≥ 3
Protocol: The experiment was carried out as previously described. […] Thereafter, the absorbance was measured using a microplate reader (EL800, Bio-Tek Instruments, Winooski, VT, USA) at 570 nm.

[5] = Oxygen radical absorbance capacity (ORAC) assay; settings: Trolox equivalent antioxidant capacity, mean ± SD, n ≥ 3
Protocol: The oxygen radical absorbance capacity (ORAC) assay was performed as previously described. Briefly, 0. […] Next, 60 µL of AAPH (40 mM) was added to generate peroxyl radicals to initiate the reaction.

[6] = Hypochlorous acid (HOCl) scavenging assay
Protocol: The HOCl scavenging assay was adapted from a previous study using 1,8-diaminonaphthalene as a fluorescence probe for hypochlorite. […] Next, the fluorescence intensity (λex = 360 ± 20 nm, λem = 460 ± 20 nm) was immediately measured using a microplate fluorescence reader (FLx800; Bio-Tek, Winooski, VT, USA). Trolox (final concentration 25–100 µg/mL) was used as a reference antioxidant.

[7] = read-out: AR inhibitory Activity Inhibition (%)
[8] = EtOAc/H2O, 1:1, 208 mM formic acid
[9] = EtOAc/n-BuOH/H2O, 2:3:5, 30 mM ammonia
[10] = EtOAc/n-BuOH/H2O, 2:3:5, 208 mM formic acid
[11] = EtOAc/n-BuOH/H2O, 3:2:5, 30 mM ammonia
[12] = EtOAc/n-BuOH/H2O, 3:2:5, 208 mM formic acid
[13] = EtOAc/n-BuOH/H2O, 4:1:5, 30 mM ammonia
[14] = EtOAc/n-BuOH/H2O, 4:1:5, 208 mM formic acid
[15] = rat lens AR, read-out: AR inhibitory Activity IC50

K(upper/lower) Value ([2]; EtOAc/H2O, 1:1, 30 mM ammonia) | K(upper/lower) Value [2, 8] | K(upper/lower) Value [2, 9] | K(upper/lower) Value [2, 10] | K(upper/lower) Value [2, 11] | K(upper/lower) Value [2, 12] | K(upper/lower) Value [2, 13] | K(upper/lower) Value [2, 14] | Structure (SMILES) | TE, ABTS [3] | inhibition at 0.195 µM [1, 7] [%] | inhibition at 0.391 µM [1, 7] [%] | IC50 [1, 15] [nM] | TE, DPPH [4] | TE, ORAC [5] | HOCl Scavenging Activity Inhibition (%) ([6]; 6.25 µM) | HOCl Scavenging Activity Inhibition (%) ([6]; 12.5 µM) | IC50 ([6]; linear regression) [nM] | also measured
0.02 | 0.49 | 0.01 | 2.49 | 0.05 | 2.03 | 0.00 | 1.36 | O=C(/C=C/c1ccc(O)c(O)c1)O[C@@H]1C[C@@](O)(C(=O)O)C[C@@H](O)[C@@H]1O [3-CQA (1), 3-O-caffeoylquinic acid] |  |  |  |  |  |  |  |  |  | K(upper/lower) Value ([2]; n-BuOH/H2O, 1:1): 0.04; K(upper/lower) Value ([2]; n-BuOH/H2O, 1:1 + 8.7 mM acetic acid): 0.73; inhibition at 1.5625 µM ([1]; 1.5625 µM, read-out: AR inhibitory Activity Inhibition (%)): 29.4 ± 3.4%; inhibition at 3.125 µM ([1]; 3.125 µM, read-out: AR inhibitory Activity Inhibition (%)): 45.8 ± 1.75%; inhibition at 6.25 µM ([1]; 6.25 µM, read-out: AR inhibitory Activity Inhibition (%)): 60.1 ± 1.22%
0.02 | 23.71 | 0.40 | 29.51 | 0.22 | 26.44 | 0.03 | 27.56 | O=C(/C=C/c1ccc(O)c(O)c1)O[C@@H]1C[C@](O)(C(=O)O)C[C@@H](OC(=O)/C=C/c2ccc(O)c(O)c2)[C@H]1OC(=O)/C=C/c1ccc(O)c(O)c1 [3,4,5-triCQA (7), 3,4,5-tri-O-caffeoylquinic acid] | 1.31 ± 0.05 ^a µmol Trolox Equivalents Per µmol Compound | 27.6 ± 2.43 | 49.7 ± 0.94 | 400 | 1.28 ± 0.04 ^a µmol Trolox Equivalents Per µmol Compound | 1.95 ± 0.15 ^b µmol Trolox Equivalents Per µmol Compound | 35.39 ± 1.17 | 52.93 ± 1.02 | 11700 | inhibition at 0.781 µM [1, 7]: 69.8 ± 0.77%; HOCl Scavenging Activity Inhibition (%) ([6]; 25 µM): 84.32 ± 3.39%
0.01 | 0.95 | 0.01 | 6.86 | 0.03 | 5.48 | 0.01 | 2.43 | O=C(/C=C/c1ccc(O)c(O)c1)O[C@@H]1C[C@](O)(C(=O)O)C[C@@H](O)[C@H]1O [5-CQA (2), 5-O-caffeoylquinic acid] |  |  | 30.8 ± 2.18 | 910 |  |  |  |  |  | inhibition at 0.781 µM [1, 7]: 44.2 ± 1.17%; inhibition at 1.563 µM ([1]; 1.563 µM, read-out: AR inhibitory Activity Inhibition (%)): 63.8 ± 2.55%

The next lines start with the molecule.

Structure (SMILES) | K(upper/lower) Value ([2]; EtOAc/H2O, 1:1, 30 mM ammonia) | K(upper/lower) Value [2, 8] | K(upper/lower) Value [2, 9] | K(upper/lower) Value [2, 10] | K(upper/lower) Value [2, 11] | K(upper/lower) Value [2, 12] | K(upper/lower) Value [2, 13] | K(upper/lower) Value [2, 14] | TE, ABTS [3] | inhibition at 0.195 µM [1, 7] [%] | inhibition at 0.391 µM [1, 7] [%] | IC50 [1, 15] [nM] | TE, DPPH [4] | TE, ORAC [5] | HOCl Scavenging Activity Inhibition (%) ([6]; 6.25 µM) | HOCl Scavenging Activity Inhibition (%) ([6]; 12.5 µM) | IC50 ([6]; linear regression) [nM] | also measured
C[C@@H]1O[C@@H](Oc2c(-c3ccc(O)c(O)c3)oc3cc(O)cc(O)c3c2=O)[C@H](O)[C@H](O)[C@H]1O [Quercitrin, quercitrin, reference compound] |  |  |  |  |  |  |  |  |  |  |  |  |  |  |  |  |  | IC50 ([1]; AR Inhibitory Activity IC50, rat lens AR): 103 nM; IC50 ([1]; AR inhibitory Activity IC50, rat lens AR): 102 nM and 100 nM; inhibition at 0.056 µg/mL [1, 7]: 62.33 ± 0.44%; inhibition at 0.063 µM [1, 7]: 32.6 ± 2.7%; inhibition at 0.112 µg/mL [1, 7]: 74.6 ± 1.11%; inhibition at 0.125 µM [1, 7]: 62.33 ± 0.44%; inhibition at 0.25 µM [1, 7]: 74.6 ± 1.11%
O=C(/C=C/c1ccc(O)c(O)c1)O[C@H]1[C@H](O)C[C@](O)(C(=O)O)C[C@H]1OC(=O)/C=C/c1ccc(O)c(O)c1 [3,4-diCQA (4), 3,4-di-O-caffeoylquinic acid] | 0.02 | 3.49 | 0.04 | 20.24 | 0.03 | 16.14 | 0.02 | 4.86 | 1.06 ± 0.06 ^c µmol Trolox Equivalents Per µmol Compound | 50.4 ± 3.34 | 68.67 ± 0.68 | 220 | 1.09 ± 0.09 ^b µmol Trolox Equivalents Per µmol Compound | 3.26 ± 0.10 ^a µmol Trolox Equivalents Per µmol Compound | 50.28 ± 0.19 | 59.15 ± 1.19 | 5780 | inhibition at 0.098 µM [1, 7]: 18.9 ± 2.43%; HOCl Scavenging Activity Inhibition (%) ([6]; 3.125 µM): 46.68 ± 2.87%
CC(/C=C1\SC(=S)N(CC(=O)O)C1=O)=C\c1ccccc1 [Epalrestat, epalrestat, reference compound] |  |  |  |  |  |  |  |  |  |  |  |  |  |  |  |  |  | inhibition at 0.01 µg/mL [1, 7]: 21.7 ± 1.25%; inhibition at 0.02 µg/mL [1, 7]: 79.3 ± 1.35%; inhibition at 0.031 µM [1, 7]: 21.7 ± 1.25%; inhibition at 0.04 µg/mL [1, 7]: 91.8 ± 1.84%; inhibition at 0.063 µM [1, 7]: 79.3 ± 1.35%; inhibition at 0.125 µM [1, 7]: 91.8 ± 1.84%
O=C(/C=C/c1ccc(O)c(O)c1)O[C@@H]1[C@H](O)C[C@@](O)(C(=O)O)C[C@H]1OC(=O)/C=C/c1ccc(O)c(O)c1 [4,5-diCQA (6), 4,5-di-O-caffeoylquinic acid] | 0.01 | 12.24 | 0.13 | 45.95 | 0.05 | 41.13 | 0.01 | 22.17 | 1.22 ± 0.03 ^b µmol Trolox Equivalents Per µmol Compound | 44.4 ± 4.45 | 65.9 ± 2.21 | 230 | 1.23 ± 0.07 ^a µmol Trolox Equivalents Per µmol Compound | 3.70 ± 0.34 ^a µmol Trolox Equivalents Per µmol Compound | 51.23 ± 2.14 | 65.80 ± 4.06 | 4610 | inhibition at 0.098 µM [1, 7]: 23.7 ± 2.7%; HOCl Scavenging Activity Inhibition (%) ([6]; 3.125 µM): 48.80 ± 5.62%
O=c1c(O)c(-c2ccc(O)c(O)c2)oc2cc(O)cc(O)c12 [Quercetin, quercetin, reference compound] |  |  |  |  |  |  |  |  |  |  |  |  |  |  |  |  |  | inhibition at 1.889 µg/mL [1, 7]: 34.8 ± 0.51%; inhibition at 3.778 µg/mL [1, 7]: 46 ± 4.49%; inhibition at 6.25 µM [1, 7]: 34.8 ± 0.51%; inhibition at 7.556 µg/mL [1, 7]: 67 ± 3.22%; inhibition at 12.5 µM [1, 7]: 46 ± 4.49%; inhibition at 25 µM [1, 7]: 67 ± 3.22%
COc1ccc(-c2cc(=O)c3c(O)cc(O)cc3o2)cc1 [Acacetin (8), acacetin] |  |  |  |  |  |  |  |  |  |  |  |  |  |  |  |  |  | inhibition at 25 µM ([1]; 25 µM, read-out: AR inhibitory Activity Inhibition (%)): 12.3 ± 4.22%; inhibition at 50 µM ([1]; 50 µM, read-out: AR inhibitory Activity Inhibition (%)): 24 ± 0.63%; inhibition at 100 µM ([1]; 100 µM, read-out: AR inhibitory Activity Inhibition (%)): 36.3 ± 3.78%
Cc1c(C)c2c(c(C)c1O)CCC(C)(C(=O)O)O2 (stereo not shown) [Trolox, reference compound] |  |  |  |  |  |  |  |  |  |  |  |  |  |  |  |  | 34000 | HOCl Scavenging Activity Inhibition (%) ([6]; 6.25 µg/mL): 40.76 ± 0.39%; HOCl Scavenging Activity Inhibition (%) ([6]; 12.5 µg/mL): 66.53 ± 2.54%; HOCl Scavenging Activity Inhibition (%) ([6]; 25 µM): 40.76 ± 0.39%; HOCl Scavenging Activity Inhibition (%) ([6]; 25 µg/mL): 97.07 ± 5.45%; HOCl Scavenging Activity Inhibition (%) ([6]; 50 µM): 66.53 ± 2.54%; HOCl Scavenging Activity Inhibition (%) ([6]; 100 µM): 97.07 ± 5.45%; HOCl Scavenging Activity IC50 ([6]; linear regression): 8.52 µg/mL
